# Measurements as given in the supplement of paper PMC10307832.
# Legend:
# Test in all cases: relative viability (nuclei count vs DMSO), 5 days (fraction); higher = more cells survive
# [1] = compound: C=CC(=O)N1CCC[C@@H](n2nc(-c3ccc(Oc4ccccc4)cc3)c3c(N)ncnc32)C1 [Ibrutinib] + COc1cccc2cc(-c3nc([C@H]4CC[C@H](C(=O)O)CC4)n4ncnc(N)c34)[nH]c12 [OSI-027] (partner 0.5 µM)
# Method in brief: (§1)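 Cells from lung cancer lines were seeded into 1536-well plates and, one day later, dosed by pin tool. Treatments were either a single drug or a fixed dose of an anchor drug with five library-drug doses (not always all listed) in √10 steps. After 5 days, nuclei were stained in a one-step fixation (final 0.05% Triton X-100, 1% formaldehyde, 1 ug/ml Hoechst) and counted on 4× images, and relative viability is the treated-to-vehicle nuclei ratio, as the median of duplicate plates.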
# [2] = compound: C=CC(=O)N1CCC[C@@H](n2nc(-c3ccc(Oc4ccccc4)cc3)c3c(N)ncnc32)C1 [Ibrutinib] + C[C@@H](Oc1cc(-c2cnn(C3CCNCC3)c2)cnc1N)c1c(Cl)ccc(F)c1Cl [Crizotinib] (partner 1 µM)
# Method in brief: as §1
# [3] = compound: C=CC(=O)N1CCC[C@@H](n2nc(-c3ccc(Oc4ccccc4)cc3)c3c(N)ncnc32)C1 [Ibrutinib] + C[C@]1(O)C[C@@H](c2nc(-c3ccc4ccc(-c5ccccc5)nc4c3)c3c(N)nccn32)C1 [Linsitinib] (partner 1 µM)
# Method in brief: as §1
# [4] = compound: C=CC(=O)N1CCC[C@@H](n2nc(-c3ccc(Oc4ccccc4)cc3)c3c(N)ncnc32)C1 [Ibrutinib] + O=C(CCCCCCC(=O)Nc1ccccc1)NO [Vorinostat] (partner 1 µM)
# Method in brief: as §1
Cell Line,relative viability ([1]; first compound 0.005 µM),relative viability ([1]; first compound 0.01581 µM),relative viability ([1]; first compound 0.05 µM),relative viability ([1]; first compound 0.1581 µM),relative viability ([1]; first compound 0.5 µM),relative viability ([2]; first compound 0.005 µM),relative viability ([2]; first compound 0.01581 µM),relative viability ([2]; first compound 0.05 µM),relative viability ([2]; first compound 0.1581 µM),relative viability ([2]; first compound 0.5 µM),relative viability ([3]; first compound 0.005 µM),relative viability ([3]; first compound 0.01581 µM),relative viability ([3]; first compound 0.05 µM),relative viability ([3]; first compound 0.1581 µM),relative viability ([3]; first compound 0.5 µM),relative viability ([4]; first compound 0.005 µM),relative viability ([4]; first compound 0.01581 µM),relative viability ([4]; first compound 0.05 µM),relative viability ([4]; first compound 0.1581 µM),relative viability ([4]; first compound 0.5 µM)
201T,0.758,0.665,0.882,0.608,0.762,1.03,1.02,1.03,1.04,1.04,0.961,1.05,1.01,1.06,0.907,0.94,0.982,0.969,0.883,0.889
A549,–,–,–,–,–,0.814,0.649,0.639,0.708,0.661,–,0.58,0.519,0.505,0.377,–,–,–,–,–
A-427,0.36,0.431,0.512,0.369,0.499,0.89,0.87,1.03,0.875,0.832,0.986,1.09,1.15,1.1,1.12,0.883,0.875,0.887,–,0.867
ABC-1,0.331,0.457,0.479,0.441,0.547,1.21,1.03,1.57,1.56,1.03,0.822,0.736,0.795,0.879,0.644,0.795,1.05,–,–,1.63
BEN,–,0.3,0.288,–,0.298,0.952,0.962,0.803,0.67,0.943,0.766,0.885,0.853,0.851,0.883,0.513,0.609,0.599,0.538,0.501
CAL-12T,0.369,0.579,0.601,0.569,0.562,–,0.589,0.582,0.718,0.301,0.805,0.724,0.627,0.739,0.472,0.617,0.623,0.464,0.841,0.621
COR-L23,0.644,0.731,0.762,0.875,0.882,0.707,0.641,0.693,0.644,0.653,1.16,0.867,0.973,0.986,–,0.326,0.51,0.522,0.477,0.566
COR-L 105,0.393,0.467,0.389,0.609,0.31,0.654,0.846,0.472,0.9,0.235,0.739,0.811,0.709,0.914,0.321,0.709,0.659,0.526,0.833,0.388
Calu-6,–,–,–,–,–,0.911,0.576,0.802,0.723,0.872,0.991,–,0.928,1.04,0.888,–,–,–,–,–
ChaGo-K-1,0.582,0.521,0.482,0.414,0.63,1.18,1.05,1.16,–,1.06,–,–,–,–,–,0.752,0.766,0.688,0.708,0.75
EBC-1,–,–,–,–,–,0.199,0.21,0.205,0.188,0.162,0.848,1,0.825,0.864,0.952,–,–,–,–,–
EKVX,0.644,0.663,0.763,0.737,0.511,0.995,0.743,1.05,0.964,0.562,0.893,0.944,1.12,1.05,0.613,0.811,0.549,0.633,0.657,0.365
EMC-BAC-2,0.33,0.352,0.403,0.426,0.405,0.79,0.679,0.731,0.813,0.726,0.777,0.703,0.637,0.795,0.586,0.412,0.525,–,–,0.453
EPLC-272H,0.246,0.255,0.219,0.242,0.208,–,0.806,0.809,1.06,0.522,–,1.07,1.31,1.25,0.771,0.248,0.4,0.31,0.597,0.401
H3255,0.459,0.547,0.623,0.654,0.406,0.873,0.81,0.729,0.874,0.429,0.925,0.772,0.685,1.06,0.227,0.889,0.725,–,0.764,0.163
HARA,0.303,0.437,0.297,0.38,0.247,1.16,0.913,1.03,1.08,0.883,1.09,0.818,0.751,0.904,–,0.606,0.482,0.663,0.64,0.553
HCC-15,0.654,0.595,0.689,0.403,0.757,0.889,0.785,0.873,0.828,0.837,0.883,0.85,0.935,0.89,0.835,0.911,0.873,0.826,0.897,0.796
HCC-44,0.44,0.517,0.585,–,0.669,0.813,0.782,0.801,0.866,0.743,0.682,0.591,0.673,0.732,0.645,1.21,–,1.2,1.2,1.15
HCC-78,0.309,0.362,0.36,0.355,0.308,0.347,0.328,0.289,0.335,0.247,0.555,0.489,0.432,0.485,0.33,–,0.403,0.405,0.446,0.388
